The record followed here is patent US20030105048A1, “Oligobenzimidazole derivatives and their use as DNA transfecting agents” (priority 1999, published 2003).

One experiment deals with mouse muscles. In words: In vivo intramuscular transfection of plasmid pXL3031 (luciferase expression) with or without electrotransfer. On the set-up: species or system C57B16 mice. The settings on record: 4 μg of DNA/muscle, 7 days. The procedure:
The plasmid used is the same as the one described above for Example 5 (pXL3031). Similarly, the cytofecting solutions are prepared in the same way as in Example 5.
25 μl of solutions of derivative (1)/DNA complexes are injected intramuscularly to C57B16 mice, at a rate of 4 μg of DNA/mouse muscle.
The transfection efficacy is evaluated 7 days 5 after transfection by measuring the expression of luciferase according to the recommendations given for using the Promega kit (Luciferase Assay System). The muscles are ground in 1.5 ml of lysis buffer (with protease inhibitors). After assaying the luciferase activity on 10 μl, the results are expressed as RLU/10 μl/10 sec.
The in vivo luciferase activity results in mouse muscles, expressed in RLU/10 μl/10 sec, are collated in the table below: […]

For the next experiment, the system named is DNA plasmid. Description: Agarose gel electrophoresis of DNA plasmid complexed with derivative or cationic lipid. The format is binding. The settings on record: increasing amounts per μg of DNA; revealed with ethidium bromide. The procedure: For this, an agarose gel of a DNA plasmid mixed with increasing amounts of derivative (1) or (2) according to the invention was prepared (see FIG. 4). […] Two bands could thus be observed by virtue of the specific spectral absorption properties of the derivatives according to the present invention:
It is observed that the DNA migrates in an identical manner to the naked DNA, irrespective of the concentration of derivative 20 according to the invention.

Another experiment relates to HeLa cells. In words: In vitro transfection of plasmid pXL3031 (luciferase expression) in the presence and absence of serum. The format is cell-based. The note with it: 48 hours after transfection. Here is the method:
The plasmid used The DNA used is the plasmid pXL3031 (see FIG. 7) as a solution in a mixture of 5% dextrose and 10 mM sodium chloride at a concentration of 0.5 mg/ml or 1.0 mg/ml. This plasmid contains the luc gene encoding luciferase under the control of the cytomegalovirus P/E CMV promoter. Its size is 3671 bp. The plasmid pXL3031 was purified according to the methods described in patent application WO 97/35002.
The nucleic acid solutions are diluted to 20 μg/ml in physiological saline (0.15 M sodium chloride).
The oligobenzimidazole derivative (2) according to the invention is dissolved in water to a concentration ranging from 40 to 160 μmol and mixed, volume for volume, with the DNA solution. The final saline concentration is 75 mmol.
HeLa cells are cultured under suitable conditions on 24-well microplates (2 cm^2/well) and are transfected while they are in the exponential growth phase and at 50-70% of confluence.
The cells are washed with twice 0.5 cm^3 of medium free of seric proteins and are regrown either in serum-free medium (transfection in the absence of serum) or in whole medium (transfection in the presence of serum). 0.05 cm^3 of cytofecting mixture (0.5 μg of DNA/well) are added to the cells (3 wells/DNA-vector condition). When the cells are transfected in the absence of serum, the growth medium is supplemented, 2 hours after the transfection, with a suitable amount of serum.
The transfecting efficacy is evaluated 48 hours after transfection by measuring the expression of luciferase according to the recommendations given for using the Promega kit (“Luciferase Assay System”). The toxicity of the cytofecting mixtures is estimated by measuring the protein concentrations in cell lysates.
The in vitro luciferase activity results relative to the proteins expressed in RLU/5 μl/10 s/μg of protein (written more simply as RLU/μg of protein, “RLU” meaning “relative light unit”) are given in the table below: […]

Molecules are shown by their SMILES.

Turning to `CCCCCCCCCCCCCCCCCCNC(=O)Oc1ccc(-c2nc3ccc(-c4nc5ccc(N6CCN(C)CC6)cc5[nH]4)cc3[nH]2)cc1` [Derivative (1), 4-[6-(4-methyl-1-piperazinyl)-1H,3′H-[2,5′]bisbenzimidazol-2′-yl]-1-octadecylcarbamoyloxy phenyl], the “in vivo luciferase activity in mouse muscles” value in the experiment with mouse muscles (0.2 nmol/μg of DNA, with electrotransfer) was 1.14 E+07 RLU/10 μl/10 sec; in the experiment with mouse muscles (0.2 nmol/μg of DNA, without electrotransfer), 3.45 E+04 RLU/10 μl/10 sec; in the experiment with mouse muscles (0.5 nmol/μg of DNA, with electrotransfer) it was 2.19 E+07 RLU/10 μl/10 sec; in the experiment with mouse muscles (0.5 nmol/μg of DNA, without electrotransfer) it was 1.67 E+04 RLU/10 μl/10 sec; in the experiment on mouse muscles (1 nmol/μg of DNA, with electrotransfer) it was 1.82 E+07 RLU/10 μl/10 sec; in the experiment on mouse muscles (1 nmol/μg of DNA, without electrotransfer) it was 1.06 E+04 RLU/10 μl/10 sec. The “electrophoretic mobility of complexes with DNA on agarose gel” value (from here on “electrophoretic mobility of complexes”) with DNA plasmid was “same electrophoretic mobility properties as the naked DNA”.
`CCCCCCCCCCCCNC(=O)Oc1ccc(-c2nc3ccc(-c4nc5ccc(N6CCN(C)CC6)cc5[nH]4)cc3[nH]2)cc1` [Derivative (2), 4-[6-(4-methyl-1-piperazinyl)-1H,3′H-[2,5′]bisbenzimidazol-2′-yl]-1-dodecylcarbamoyloxy phenyl]: the “in vitro luciferase activity” value in the experiment on HeLa cells (4 nmol/μg of DNA, + serum) is listed as 9.8 E+02 RLU/μg of protein; in the experiment on HeLa cells (4 nmol/μg of DNA, absence of serum) it was 1.3 E+03 RLU/μg of protein; in the experiment on HeLa cells (8 nmol/μg of DNA, + serum) it was 4.6 E+02 RLU/μg of protein; with HeLa cells (8 nmol/μg of DNA, absence of serum), 1.7 E+03 RLU/μg of protein; in the experiment on HeLa cells (10 nmol/μg of DNA, + serum) it was 1.1 E+02 RLU/μg of protein; in the experiment on HeLa cells (10 nmol/μg of DNA, absence of serum) it was 1.7 E+03 RLU/μg of protein. Besides, in the experiment on DNA plasmid, the “electrophoretic mobility of complexes” value is recorded as “same electrophoretic mobility properties as the naked DNA”.
For `CCCCCCCCCCCCCCN(CCCCCCCCCCCCCC)C(=O)CNC(=O)CNCCN(CCN)CCN` [cationic lipid, reference compound], in the experiment with DNA plasmid, the “electrophoretic mobility of complexes” value is “varies with the amount of cationic lipid present with the DNA”.
